The text below walks through data of US8598202B2, “Aryl-hydroxyethylamino-pyrimidines and triazines as modulators of fatty acid amide hydrolase” (Janssen Pharmaceutica NV, priority 2008, dated 2013).

Each structure is given as a SMILES string. Where a name gives a salt, the structure may show the parent alone.

As a reminder, the IC50 is the concentration at which inhibition is half-maximal.

The target of test [1] is T1, FAAH (Homo sapiens, UniProt O00519).
T1 sequence (O00519 1-579): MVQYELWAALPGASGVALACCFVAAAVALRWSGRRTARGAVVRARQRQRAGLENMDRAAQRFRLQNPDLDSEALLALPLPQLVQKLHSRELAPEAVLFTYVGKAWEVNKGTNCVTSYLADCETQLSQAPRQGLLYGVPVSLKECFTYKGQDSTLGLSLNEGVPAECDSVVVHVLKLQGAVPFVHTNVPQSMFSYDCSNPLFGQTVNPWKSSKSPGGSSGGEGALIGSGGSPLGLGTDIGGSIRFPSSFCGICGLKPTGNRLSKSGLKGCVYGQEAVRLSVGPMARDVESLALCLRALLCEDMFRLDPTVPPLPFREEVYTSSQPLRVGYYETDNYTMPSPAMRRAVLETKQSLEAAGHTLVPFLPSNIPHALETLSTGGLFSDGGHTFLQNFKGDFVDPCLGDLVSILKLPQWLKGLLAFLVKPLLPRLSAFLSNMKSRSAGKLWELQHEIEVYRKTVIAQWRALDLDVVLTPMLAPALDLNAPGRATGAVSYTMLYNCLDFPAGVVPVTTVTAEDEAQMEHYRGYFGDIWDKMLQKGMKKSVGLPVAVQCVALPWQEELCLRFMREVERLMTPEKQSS
Kind of test: Assay Method 1: FAAH assay, 3H-anandamide hydrolysis in homogenate of T84 cells or SK-N-MC cells transfected with human FAAH.

The target of test [2] is T2, Rat FAAH-1 (Rattus norvegicus, UniProt P97612).
T2 sequence (P97612 1-579): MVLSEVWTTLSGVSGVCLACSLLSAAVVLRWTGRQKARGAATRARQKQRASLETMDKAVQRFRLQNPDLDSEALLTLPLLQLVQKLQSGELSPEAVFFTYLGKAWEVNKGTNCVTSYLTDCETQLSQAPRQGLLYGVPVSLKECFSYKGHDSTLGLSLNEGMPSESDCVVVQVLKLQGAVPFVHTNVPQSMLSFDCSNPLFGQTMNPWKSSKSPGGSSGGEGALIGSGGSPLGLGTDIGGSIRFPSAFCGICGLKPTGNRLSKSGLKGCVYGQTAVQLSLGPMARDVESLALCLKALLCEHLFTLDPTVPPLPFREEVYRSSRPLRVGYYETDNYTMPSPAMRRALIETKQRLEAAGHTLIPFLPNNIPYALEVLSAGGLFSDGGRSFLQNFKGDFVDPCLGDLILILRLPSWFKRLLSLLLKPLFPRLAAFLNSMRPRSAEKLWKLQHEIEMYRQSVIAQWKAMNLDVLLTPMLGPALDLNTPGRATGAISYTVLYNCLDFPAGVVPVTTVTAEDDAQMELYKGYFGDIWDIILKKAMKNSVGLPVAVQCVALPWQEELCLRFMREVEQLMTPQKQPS
Kind of test: Assay Method 2: rat FAAH-1 assay, 3H-anandamide hydrolysis in homogenate of SK-N-MC cells transfected with rat FAAH.

With `OC(CNc1cc(-c2ccc(C(F)(F)F)c(Cl)c2)ncn1)c1ccsc1` (stereo not shown) [Example 168, 2-({6-[3-Chloro-4-(trifluoromethyl)phenyl]pyrimidin-4-yl}amino)-1-thiophen-3-ylethanol], the IC50 came to 66 nM in test [1] and 42 nM in test [2].

Consider `Cc1c(NC[C@H](O)c2ccccc2)ncnc1-c1ccc(C(F)(F)F)c(Cl)c1` [Example 47, (1R)-2-({6-[3-Chloro-4-(trifluoromethyl)phenyl]-5-methylpyrimidin-4-yl}amino)-1-phenylethanol trifluoroacetic acid salt], for which the 50% inhibitory concentration (IC50) is 26 nM in test [1] and 510 nM in test [2].

For the compound `Oc1ccc(-c2cc(NCC(O)c3ccccc3)ncn2)cc1` (stereo not shown) [Example 238, 4-[6-(2-Hydroxy-2-phenyl-ethylamino)-pyrimidin-4-yl]-phenol], the IC50 in test [1] is 7000 nM; in test [2] it was > 10000 nM.

With `CCc1ccc(-c2cc(NCC(O)c3ccccc3)ncn2)cc1` (stereo not shown) [Example 6, 2-{[6-(4-Ethylphenyl)pyrimidin-4-yl]amino}-1-phenylethanol], the IC50 in test [1] is 33 nM; in test [2], 233 nM.

As for `O[C@@H](CNc1cc(-c2cc(F)c(OC(F)F)c(F)c2)ncn1)c1ccccc1` [Example 49, (1R)-2-({6-[4-(Difluoromethoxy)-3,5-difluorophenyl]pyrimidin-4-yl}amino)-1-phenylethanol trifluoroacetic acid salt], the figures for the IC50 in test [1] and in test [2] were 2 nM and 9 nM, respectively.

`Cc1ccc2sc(-c3cc(NC[C@H](O)c4ccccc4)ncn3)cc2c1` [Example 56, (1R)-2-{[6-(5-Methyl-1-benzothiophen-2-yl)pyrimidin-4-yl]amino}-1-phenylethanol]: the IC50 came out at 2 nM in test [1] and 40 nM in test [2].

For the compound `OC(CNc1cc(-c2ccc(C(F)(F)F)c(Cl)c2)ncn1)c1csc2ccccc12` (stereo not shown) [Example 201, 1-(1-benzothiophen-3-yl)-2-({6-[3-chloro-4-(trifluoromethyl)phenyl]pyrimidin-4-yl}amino)ethanol], the half-maximal inhibitory concentration (IC50) in test [1] and in test [2] was 170 nM throughout.

On to `OC(CNc1cc(-c2ccc(OC(F)(F)F)cc2)ncn1)c1ccc2c(c1)OCO2` (stereo not shown) [Example 127, 1-(1,3-Benzodioxol-5-yl)-2-[(6-{4-[(trifluoromethyl)oxy]phenyl}-pyrimidin-4-yl)amino]ethanol], for which the IC50 came to 122 nM in test [1] and 112 nM in test [2].

`Cc1nc(NC[C@H](O)c2ccccc2)cc(-c2ccc(Cl)c(Cl)c2)n1` [Example 155, (1R)-2-{[6-(3,4-Dichlorophenyl)-2-methylpyrimidin-4-yl]amino}-1-phenylethanol]: the results for the IC50 in test [1] and in test [2] were 60 nM and 270 nM, respectively.

Turning to `OC(CNc1cc(-c2ccc(C(F)(F)F)c(Cl)c2)ncn1)c1ccc2c(c1)OCCCO2` (stereo not shown) [Example 204, 2-({6-[3-Chloro-4-(trifluoromethyl)phenyl]pyrimidin-4-yl}amino)-1-(3,4-dihydro-2H-1,5-benzodioxepin-7-yl)ethanol], the IC50 in test [1] was 548 nM; in test [2] it was 82 nM.

In the case of `O[C@@H](CNc1cc(-c2ccc3sccc3c2)ncn1)c1ccccc1` [Example 100, (1R)-2-{[6-(1-Benzothiophen-5-yl)pyrimidin-4-yl]amino}-1-phenylethanol trifluoroacetic acid salt], the IC50 was determined as 43 nM in test [1] and 1400 nM in test [2].

Take `OC(CNc1cc(-c2c(F)cccc2F)ncn1)c1ccccc1` (stereo not shown) [Example 237, 2-[6-(2,6-Difluoro-phenyl)-pyrimidin-4-ylamino]-1-phenyl-ethanol]: the IC50 in test [1] and in test [2] was > 10000 nM throughout.

For `C[C@H](Nc1cc(-c2ccc(OC(F)(F)F)cc2)ncn1)[C@H](O)c1ccccc1` [Example 119, (1R,2S)-1-Phenyl-2-[(6-{4-[(trifluoromethyl)oxy]phenyl}pyrimidin-4-yl)amino]propan-1-ol], the IC50 in test [1] came to 17 nM; in test [2] it was 55 nM.

For the compound `O[C@@H](CNc1cc(-c2cc3ccc(C(F)(F)F)cc3s2)ncn1)c1ccccc1` [Example 186, (1R)-1-Phenyl-2-({6-[6-(trifluoromethyl)-1-benzothiophen-2-yl]pyrimidin-4-yl}amino)ethanol trifluoroacetic acid salt], the IC50 in test [1] was 7070 nM; in test [2] it was > 10000 nM.

For `OC(CNc1cc(-c2ccc(C(F)(F)F)c(Cl)c2)ncn1)c1cc(-c2ccc(Cl)c(Cl)c2)no1` (stereo not shown) [Example 213, 2-[6-(3-Chloro-4-trifluoromethyl-phenyl)-pyrimidin-4-ylamino]-1-[3-(3,4-dichloro-phenyl)-isoxazol-5-yl]-ethanol], the IC50 amounted to 22 nM in test [1] and 400 nM in test [2].

Take `CC(=O)c1ccc(-c2cc(NCC(O)c3ccccc3)ncn2)s1` (stereo not shown) [Example 236, 1-{5-[6-(2-Hydroxy-2-phenyl-ethylamino)-pyrimidin-4-yl]-thiophen-2-yl}-ethanone]: the IC50 in test [1] is 700 nM; in test [2], 4000 nM.

As for `OC(CNc1cc(-c2ccc(C(F)(F)F)c(Cl)c2)ncn1)c1cc(C(F)(F)F)ccc1F` (stereo not shown) [Example 205, 2-({6-[3-Chloro-4-(trifluoromethyl)phenyl]pyrimidin-4-yl}amino)-1-[2-fluoro-5-(trifluoromethyl)phenyl]ethanol], the results for the 50% inhibitory concentration (IC50) in test [1] and in test [2] were 80 nM and 14 nM, respectively.

Consider `O[C@@H](CNc1cc(-c2ccc(Cl)c(Cl)c2)ncn1)c1ccccc1` [Example 95, (1R)-2-{[6-(3,4-Dichlorophenyl)-pyrimidin-4-yl]amino}-1-phenylethanol], for which the values for the IC50 in test [1] and in test [2] were 18 nM and 66 nM, respectively.

Take `CC(C)(C)NS(=O)(=O)c1ccc(-c2cc(NC[C@H](O)c3ccccc3)ncn2)cc1` [Example 171, N-tert-Butyl-4-(6-{[(2R)-2-hydroxy-2-phenylethyl]amino}pyrimidin-4-yl)benzenesulfonamide]: the IC50 was 1600 nM in test [1] and > 10000 nM in test [2].

As to `C[C@@H](Nc1cc(-c2ccc(OC(F)(F)F)cc2)ncn1)[C@@H](O)c1ccccc1` [Example 150, (1S,2R)-1-Phenyl-2-[(6-{4-[(trifluoromethyl)oxy]phenyl}pyrimidin-4-yl)amino]propan-1-ol], the IC50 is 1500 nM in test [1] and 5000 nM in test [2].

As to `O[C@@H](CNc1cc(-c2ccc(OC(F)(F)F)c(F)c2)ncn1)c1ccc(F)cc1` [Example 174, (1R)-1-(4-Fluorophenyl)-2-({6-[3-fluoro-4-(trifluoromethoxy)phenyl]pyrimidin-4-yl}amino)ethanol trifluoroacetic acid salt], the results for the half-maximal inhibitory concentration (IC50) in test [1] and in test [2] were 2 nM and 5 nM, respectively.

On to `Cn1c(-c2cc(NC[C@H](O)c3ccccc3)ncn2)cc2ccccc21` [Example 55, (1R)-2-{[6-(1-Methyl-1H-indol-2-yl)pyrimidin-4-yl]amino}-1-phenylethanol trifluoroacetic acid salt], for which the IC50 is 20 nM in test [1] and 1700 nM in test [2].

Regarding `O[C@@H](CNc1cc(-c2cc(F)cc(Cl)c2)ncn1)c1ccccc1` [Example 43, (1R)-2-{[6-(3-Chloro-5-fluorophenyl)pyrimidin-4-yl]amino}-1-phenylethanol trifluoroacetic acid salt], the IC50 in test [1] was found to be 88 nM; in test [2], 446 nM.
